Patent publication US10206937B2, “Boronic acid derivatives and therapeutic uses thereof” (Qpex Biopharma, Inc., priority 2014, dated 2019)
Read-outs that look alike come from different tables or passages of the source.

Key:
NDM-1 [1] = target: T1, NDM-1 (Klebsiella pneumoniae, UniProt C7C422); assay: biochemical
OXA-48 = OXA-48 (Klebsiella pneumoniae, UniProt Q6XEC0); assay: Inhibition of purified class D carbapenemase OXA-48 (Ki, carbapenem substrates); assay type: biochemical
[2] = target: T2, purified class A, C and D enzymes (UniProt Q6XEC0); assay type: biochemical; details: read-out: Ki (OXA-48, NCF); purified OXA-48; nitrocefin reporter substrate
T2 construct: rows headed: Ki (OXA-48, NCF); other: purified OXA-48; nitrocefin reporter substrate

[3] = target: T3, purified class A, C and D enzymes (UniProt Q48434); assay type: biochemical; details: read-out: Ki (CMY-2, NCF); purified CMY-2; nitrocefin reporter substrate
T3 construct: rows headed: Ki (CMY-2, NCF); other: purified CMY-2; nitrocefin reporter substrate

[4] = target: T4, purified class A, C and D enzymes (UniProt Q9F663); assay type: biochemical; details: read-out: Ki (KPC-2, NCF); purified KPC-2; nitrocefin reporter substrate
T4 construct: rows headed: Ki (KPC-2, NCF); other: purified KPC-2; nitrocefin reporter substrate

[5] = target: T5, purified class A, C and D enzymes (UniProt P0AD64, L31Q/G234S/E235K, species not given); assay type: biochemical; details: read-out: Ki (SHV-12, NCF); purified SHV-12; nitrocefin reporter substrate
T5 construct: Ki (SHV-12, NCF); other: purified SHV-12; nitrocefin reporter substrate
T5 sequence (P0AD64 1-286 L31Q/G234S/E235K): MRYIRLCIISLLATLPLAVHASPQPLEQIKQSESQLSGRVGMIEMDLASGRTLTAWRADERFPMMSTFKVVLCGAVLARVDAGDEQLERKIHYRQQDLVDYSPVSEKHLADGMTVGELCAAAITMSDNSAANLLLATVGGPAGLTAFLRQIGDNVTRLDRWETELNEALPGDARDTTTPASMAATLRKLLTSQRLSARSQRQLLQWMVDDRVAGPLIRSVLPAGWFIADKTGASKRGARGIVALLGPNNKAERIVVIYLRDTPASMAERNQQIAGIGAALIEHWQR

VIM-1 = target: T6, VIM-1 (Pseudomonas aeruginosa, UniProt A0A0F7KYQ8); assay: biochemical; details: cleavage of nitrocefin (200 uM) by VIM-1 supernatant
T6 construct: made in house; host or cells: ECM6711 strain carrying pUCP24-VIM-1 plasmid; culture supernatant used unpurified

NDM-1 [6] = target: T1, NDM-1; assay: Inhibition of purified class B carbapenemase NDM-1 (Ki, imipenem substrate); assay type: biochemical; details: NDM-1, substrate imipenem; read-out: Ki NDM-1, Imipenem
[7] = target: purified class A, C and D enzymes (Escherichia coli, UniProt Q9L5C7); assay type: biochemical
KP1014 (VIM-1) = assay: Carbapenem potentiation against clinical isolate (MIC); assay type: cell-based, Klebsiella pneumoniae; details: antibiotic alone
[8] = system: KP1086 (TEM, SHV, CTX-M-15, OXA-48); assay: as above; assay type: cell-based, Klebsiella pneumoniae; details: antibiotic alone
[9] = system: KP1004 (KPC-2, TEM-1, SHV-11); assay: as above; assay type: cell-based, Klebsiella pneumoniae; details: antibiotic alone
AB1144 (NDM-1) = assay: as above; assay type: cell-based, Acinetobacter baumannii; details: AB1144; antibiotic alone
[10] = system: KP1074 (KPC-3, SHV-11, TEM); assay: as above; assay type: cell-based, Klebsiella pneumoniae; details: antibiotic alone
[11] = system: KP1081 (NDM-1, TEM-1, SHV-11, CMY-6, CTX-M-15); assay: as above; assay type: cell-based; details: antibiotic alone
EA1019 (SHV-5, VIM-1) = assay: as above; assay type: cell-based, Enterobacter aerogenes; details: EA1019; antibiotic alone
KP1054 (VIM-1, SHV-11) = assay: as above; assay type: cell-based, Klebsiella pneumoniae; details: antibiotic alone
[12] = system: KP1084 (KPC-3, SHV-11, TEM-1); assay: as above; assay type: cell-based, Klebsiella pneumoniae; details: antibiotic alone
[13] = system: KP1087 (KPC-2, CTX-M-15, SHV-11, TEM-1); assay: as above; assay type: cell-based; details: antibiotic alone
[14] = system: KP1064 (KPC-2, SHV-11, TEM-1); assay: as above; assay type: cell-based, Klebsiella pneumoniae; details: antibiotic alone
[15] = system: EC1064 (NDM-1, CMY-6, CTX-M-15); assay: as above; assay type: cell-based, Escherichia coli; details: antibiotic alone
[16] = Serum stability of prodrugs: hydrolysis by human serum; assay type: in vitro ADME; details: prodrug
Experimental: (§1) Prodrug strategy is one of the ways to achieve or increase oral bioavailability for therapeutic drugs. Compound 62 was used as a template for various ester prodrugs. After a prodrug molecule is absorbed into systemic circulation, it should be hydrolyzed in the blood in order to release the active form. Hydrolysis of several prodrugs by rat and human serum were evaluated.
(§2) For all stability experiments the test compounds were treated with rat or human serum in Eppendorf tubes. Typically, 980 μl of serum was prewarmed at 37 degrees for 2 minutes and then 20 μl of a compound (at 1 mg/ml, 50×) was added to it to get a final concentration of 20 μg/ml and immediately mixed. Duplicate samples were tested. […] After vortexing for 30 seconds, the tube was centrifuged in a microcentrifuge for 10 minutes at 15K rpm. Next, 100 μl of the supernatant was combined with 600 μl of water and injected on LC-MS using 0.1% formic acid in water for mobile phase A and 0.1% formic acid in methanol for mobile phase B on an ACE 5 C18 2.1×100 mm column with a 10 μL it injection. The flow rate and gradient were adjusted as needed to give the desired resolution and run time. The pH of the mobile phase was adjusted if needed to improve the chromatography.
(§3) The time course of both the disappearance of a prodrug and the appearance of the active form of that prodrug is presented in Table 13 and Table 14. The active metabolites for all of the listed prodrugs are corresponding parent drugs

[17] = Serum stability of prodrugs: hydrolysis by rat serum; assay type: in vitro ADME; details: rat serum, prodrug
Experimental: as §1, §2, §3

[18] = cleavage of imipenem (100 uM) by NDM-1, read-out: Ki, Imipenem
[19] = purified OXA-48, substrate biapenem, read-out: Ki OXA-48, Biapenem
[20] = cleavage of biapenem (100 uM) by NDM-1, read-out: Ki, Biapenem
[21] = cleavage of tebipenem (100 uM) by NDM-1, read-out: Ki, Tebipenem
[22] = 37 degrees, sampled immediately

Sequence of OXA-48 (Q6XEC0 23-265, looked up): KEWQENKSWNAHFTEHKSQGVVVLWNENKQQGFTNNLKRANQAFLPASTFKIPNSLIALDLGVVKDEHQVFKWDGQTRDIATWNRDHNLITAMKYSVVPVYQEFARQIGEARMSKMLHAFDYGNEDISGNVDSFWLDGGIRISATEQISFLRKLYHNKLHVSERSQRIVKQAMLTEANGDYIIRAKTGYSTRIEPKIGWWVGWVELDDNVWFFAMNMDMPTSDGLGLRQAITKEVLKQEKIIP
T1 sequence (C7C422 29-270, looked up, species assumed): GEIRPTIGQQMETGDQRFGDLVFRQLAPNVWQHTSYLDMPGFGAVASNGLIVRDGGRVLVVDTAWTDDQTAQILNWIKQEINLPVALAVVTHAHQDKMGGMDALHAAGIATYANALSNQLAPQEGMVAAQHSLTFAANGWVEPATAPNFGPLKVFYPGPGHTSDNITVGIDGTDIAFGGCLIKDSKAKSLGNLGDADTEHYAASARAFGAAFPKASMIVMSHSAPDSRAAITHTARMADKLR
Sequence of purified class A, C and D enzymes (Escherichia coli, UniProt Q9L5C7) (Q9L5C7 entry or part of it): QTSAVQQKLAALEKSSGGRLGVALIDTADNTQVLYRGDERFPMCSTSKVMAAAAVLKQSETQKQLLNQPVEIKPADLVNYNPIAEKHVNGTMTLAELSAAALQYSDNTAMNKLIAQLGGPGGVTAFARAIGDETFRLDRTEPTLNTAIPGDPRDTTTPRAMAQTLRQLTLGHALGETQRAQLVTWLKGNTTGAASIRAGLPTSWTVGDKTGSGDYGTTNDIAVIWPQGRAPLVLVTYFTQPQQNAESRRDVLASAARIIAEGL

Row | SMILES | Ki (NDM-1 [1]; [18]) | Ki (OXA-48; [19]) | Ki [2] | Ki [3] | Ki [4] | Ki [5] | IC50 (VIM-1) | Ki (NDM-1 [6]) | further results
1 | NC(=O)CCS[C@H]1Cc2cccc(C(=O)O)c2OB1O [Compound 9, (R)-3-(3-amino-3-oxopropylthio)-2-hydroxy-3,4-dihydro-2H-benzo[e][1,2]oxaborinine-8-carboxylic acid] | > 100 nM | 10 to 100 nM | < 100 nM | < 100 nM | < 100 nM | 100 to 1000 nM | < 1000 nM | > 100 nM | –
2 | CC(=O)Nc1nnc(S[C@H]2Cc3cccc(C(=O)O)c3OB2O)s1 [Compound 7, (R)-3-(5-acetamido-1,3,4-thiadiazol-2-ylthio)-2-hydroxy-3,4-dihydro-2H-benzo[e][1,2]oxaborinine-8-carboxylic acid] | 10 to 100 nM | < 10 nM | < 100 nM | < 100 nM | – | < 100 nM | < 1000 nM | 10 to 100 nM | –
3 | Nc1nnc(S[C@H]2Cc3cccc(C(=O)O)c3OB2O)s1 [Compound 4, (R)-3-(5-amino-1,3,4-thiadiazol-2-ylthio)-2-hydroxy-3,4-dihydro-2H-benzo[e][1,2]oxaborinine-8-carboxylic acid] | < 10 nM | < 10 nM | < 100 nM | < 100 nM | – | < 100 nM | < 1000 nM | < 10 nM | Ki (NDM-1 [1]; [20]): < 10 nM; Ki (NDM-1 [1]; [21]): < 10 nM; Ki (OXA-48; cleavage of biapenem by OXA-48, read-out: Ki, Biapenem): < 10 nM; Ki (OXA-48; cleavage of doripenem by OXA-48, read-out: Ki, Doripenem): 10 to 100 nM; Ki (OXA-48; cleavage of imipenem by OXA-48, read-out: Ki, Imipenem): < 10 nM; Ki (OXA-48; cleavage of meropenem by OXA-48, read-out: Ki, Meropenem): > 100 nM; Ki (OXA-48; cleavage of tebipenem by OXA-48, read-out: Ki, Tebipenem): 10 to 100 nM
4 | O=C(O)[C@H]1/C(=C/CO)O[C@@H]2CC(=O)N21 [Clavulanic acid] | – | – | > 1000 nM | > 1000 nM | > 1000 nM | – | – | – | Ki (CTX-M-14, NCF) [7]: X (key: X: Less than 0.1 μM; Y: 0.1 μM to 1 μM; Z: Greater than 1 μM)
5 | NC(=O)CS[C@H]1Cc2cccc(C(=O)O)c2OB1O [Compound 3, (R)-3-(2-amino-2-oxoethylthio)-2-hydroxy-3,4-dihydro-2H-benzo[e][1,2]oxaborinine-8-carboxylic acid] | > 100 nM | < 10 nM | < 100 nM | < 100 nM | < 100 nM | 100 to 1000 nM | – | > 100 nM | Ki (NDM-1 [1]; [20]): > 100 nM; Ki (NDM-1 [1]; [21]): > 100 nM
6 | O=C(O)c1cccc2c1OB(O)[C@@H](Sc1nccs1)C2 [Compound 11, (R)-2-hydroxy-3-(thiazol-2-ylthio)-3,4-dihydro-2H-benzo[e][1,2]oxaborinine-8-carboxylic acid] | > 100 nM | – | < 100 nM | < 100 nM | – | < 100 nM | ≥ 1000 nM | > 100 nM | –
7 | C[C@@H](O)[C@H]1C(=O)N2C(C(=O)O)=C(S[C@@H]3CN[C@H](CNS(N)(=O)=O)C3)[C@H](C)[C@H]12 [Doripenem] | – | – | – | – | – | – | – | – | Carbapenem MIC Alone (KP1014 (VIM-1)): Z (MIC of greater than 10 μg/mL); Carbapenem MIC Alone [8]: Z (MIC of greater than 10 μg/mL); Carbapenem MIC Alone [9]: Y (MIC of 1 μg/mL to 10 μg/mL); Carbapenem MIC Alone (AB1144 (NDM-1)): Z (MIC of greater than 10 μg/mL); Carbapenem MIC Alone [10]: Z (MIC of greater than 10 μg/mL); Carbapenem MIC Alone [11]: Z (MIC of greater than 10 μg/mL); Carbapenem MIC Alone (EA1019 (SHV-5, VIM-1)): Z (MIC of greater than 10 μg/mL); Carbapenem MIC Alone (KP1054 (VIM-1, SHV-11)): Z (MIC of greater than 10 μg/mL); Carbapenem MIC Alone [12]: Z (MIC of greater than 10 μg/mL); Carbapenem MIC Alone [13]: Z (MIC of greater than 10 μg/mL); Carbapenem MIC Alone [14]: Z (MIC of greater than 10 μg/mL); Carbapenem MIC Alone [15]: Z (MIC of greater than 10 μg/mL)
8 | NC(=O)CC1Cc2cccc(C(=O)O)c2OB1O (stereo not shown) [Compound 22, 3-(2-amino-2-oxoethyl)-2-hydroxy-3,4-dihydro-2H-benzo[e][1,2]oxaborinine-8-carboxylic acid] | – | – | < 100 nM | < 100 nM | < 100 nM | < 100 nM | – | – | –
9 | O=C(O)c1cccc2c1OB(O)[C@@H](Sc1nnc[nH]1)C2 [Compound 2, (R)-3-(4H-1,2,4-triazol-3-ylthio)-2-hydroxy-3,4-dihydro-2H-benzo[e][1,2]oxaborinine-8-carboxylic acid] | < 10 nM | 10 to 100 nM | < 100 nM | 100 to 1000 nM | 100 to 1000 nM | < 100 nM | < 1000 nM | < 10 nM | Ki (NDM-1 [1]; [21]): 10 to 100 nM
10 | Cn1cnnc1S[C@H]1Cc2cccc(C(=O)O)c2OB1O [Compound 15, (R)-2-hydroxy-3-(4-methyl-4H-1,2,4-triazol-3-ylthio)-3,4-dihydro-2H-benzo[e][1,2]oxaborinine-8-carboxylic acid] | 10 to 100 nM | < 10 nM | < 100 nM | < 100 nM | 100 to 1000 nM | < 100 nM | < 1000 nM | – | Ki (NDM-1 [1]; [20]): 10 to 100 nM; Ki (NDM-1 [1]; cleavage of meropenem (100 uM) by NDM-1, read-out: Ki, Meropenem): 10 to 100 nM
11 | CCOC(=O)OCOC(=O)c1c(OC)ccc2c1OB(O)[C@@H](Sc1nncs1)C2 [Compound 124, ethoxycarbonyloxymethyl (3R)-2-hydroxy-7-methoxy-3-(1,3,4-thiadiazol-2-ylsulfanyl)-3,4-dihydro-1,2-benzoxaborinine-8-carboxylate] | – | – | – | – | – | – | – | – | Measured Initial Conc. in Serum [16, 22]: 48.3 µM; Conc. at t = 1 hr ([16]; 1 hr): 38.3 µM; Conc. at t = 3 hr ([16]; 3 hr): 45.9 µM; Measured Initial Conc. in Serum [17, 22]: 44.9 µM; Conc. at t = 1 hr ([17]; 1 hr): 36.8 µM; Conc. at t = 3 hr ([17]; 3 hr): 41.2 µM
12 | C[C@]1(Cn2ccnn2)[C@H](C(=O)O)N2C(=O)C[C@H]2S1(=O)=O [Tazobactam] | – | – | 100 to 1000 nM | 100 to 1000 nM | > 1000 nM | – | – | – | –
